Measured values taken from ChEMBL document CHEMBL4043258, “Polycyclic polyprenylated acylphloroglucinol derivatives from Hypericum scabrum” (2017).

System: HepG2
Test: Hepatoprotective activity in human HepG2 cells assessed as inhibition of paracetamol-induced reduction in cell viability at 10 uM pretreated for 1 hr followed by paracetamol addition after 24 hrs by MTT assay relative to control
Type: functional

Row | SMILES | inhibition at 10 µM [%]
1 | CC[C@H](C)C(=O)[C@]12C(=O)[C@](C)(C[C@H](CC=C(C)C)[C@@]1(C)CCC=C(C)C)C(=O)C1=C2O[C@H](C(C)(C)O)C1 | 15
2 | CC(=O)CC1C2CC3(CC=C(C)C)C(=O)C1(C(=O)c1ccccc1)C(=O)C(CC=C(C)C)(C3=O)C2(C)C (stereo not given) | 13.9
3 | CC(C)=CC[C@H]1C[C@]2(CC=C(C)C)C(=O)C3=C(O[C@H](C(C)(C)O)C3)[C@@](C(=O)c3ccccc3)(C2=O)C1(C)C | 19.5
4 | CC(C)=CC[C@H]1C[C@@]23C[C@H](C(C)(C)O)OC2=C(C(=O)c2ccccc2)C(=O)[C@](C(=O)c2ccccc2)(C3=O)C1(C)C | 13.4
5 | COC(=O)[C@]1(CC=C(C)C)C[C@@H](CC=C(C)C)C(C)(C)[C@@H](C(=O)c2ccccc2)C1=O | 32.3
6 | CC(C)=CC[C@@H]1C[C@@]2(CC=C(C)C)C(=O)[C@](C(=O)c3ccccc3)(C(=O)C3=C2O[C@H](C(C)(C)O)C3)C1(C)C | 24.5
7 | CC(C)=CCC1=C2O[C@@H](C(C)(C)O)C[C@@]23C[C@@H](CC=C(C)C)C(C)(C)[C@@](C(=O)c2ccccc2)(C1=O)C3=O | -9.68
8 | CC(C)=CC[C@H]1C[C@@]2(CC=C(C)C)C(=O)C3=C(O[C@H](C(C)(C)O)C3)[C@](C(=O)c3ccccc3)(C2=O)C1(C)C | 40.4
9 | CC(C)=CC[C@H]1C[C@@H](CC=C(C)C)C(C)(C)C(C(=O)c2ccccc2)C1=O (single isomer, unassigned) | 45
10 | COC(=O)c1cc(OC)c2c(c1-c1c(CO)cc(OC)c3c1OCO3)OCO2 [BICYCLOL] | 28.3
